{
  "source": "patent US20120040895A1",
  "about": "“PEPTIDE AVAILABILITY” (priority 2008, published 2012)",
  "origin": "cited, not measured here",
  "data": [
    {"compound": "CC[C@H](C)[C@H](N)C(=O)N1CCC[C@H]1C(=O)N1CCC[C@H]1C(=O)O", "note": "[IPP, Isoleucine-Proline-Proline]", "values": [
      {"measurement": "Further increase of AUC when consumed with the meal", "setting": "yoghurt drink consumed with breakfast, versus fasted state", "result": 30, "unit": "%"},
      {"measurement": "Increase of plasma IPP level (area under the concentration vs. time curve) compared to a control drink", "setting": "yoghurt drink drunk in overnight fasted state 30 min prior to breakfast", "result": "more than two-fold"}
    ]}
  ]
}
